Experimental data published in PubChem BioAssay (NCI).
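GI50: concentration for 50% inhibition of growth. Definition used: TGI = concentration required for complete inhibition of growth.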

Legend:
Test in all cases: DTP human tumour cell line panel, 384-well format
A498 renal = tested on: A498 renal
A549 NSCLC = tested on: A549 NSCLC
ACHN renal = tested on: ACHN renal
BT-549 breast = tested on: BT-549 breast
CAKI-1 renal = tested on: CAKI-1 renal
CCRF-CEM leukemia = tested on: CCRF-CEM leukemia
COLO 205 colon = tested on: COLO 205 colon
EKVX NSCLC = tested on: EKVX NSCLC
HCC-2998 colon = tested on: HCC-2998 colon
HCT-116 colon = tested on: HCT-116 colon
HOP-92 NSCLC = tested on: HOP-92 NSCLC
HS 578T breast = tested on: HS 578T breast
HT29 colon = tested on: HT29 colon
IGROV1 ovarian = tested on: IGROV1 ovarian
K-562 leukemia = tested on: K-562 leukemia
KM12 colon = tested on: KM12 colon
LOX IMVI melanoma = tested on: LOX IMVI melanoma
MALME-3M melanoma = tested on: MALME-3M melanoma
MDA-MB-231 breast = tested on: MDA-MB-231 breast
MDA-MB-435 melanoma = tested on: MDA-MB-435 melanoma
MOLT-4 leukemia = tested on: MOLT-4 leukemia
NCI-H226 lung = tested on: NCI-H226 lung
NCI-H23 lung = tested on: NCI-H23 lung
NCI-H322M lung = tested on: NCI-H322M lung
NCI-H522 lung = tested on: NCI-H522 lung
NCI/ADR-RES ovarian = tested on: NCI/ADR-RES ovarian
OVCAR-3 ovarian = tested on: OVCAR-3 ovarian
OVCAR-4 ovarian = tested on: OVCAR-4 ovarian
OVCAR-5 ovarian = tested on: OVCAR-5 ovarian
OVCAR-8 ovarian = tested on: OVCAR-8 ovarian
PC-3 prostate = tested on: PC-3 prostate
RPMI-8226 leukemia = tested on: RPMI-8226 leukemia
SF-268 CNS = tested on: SF-268 CNS
SF-295 CNS = tested on: SF-295 CNS
SF-539 CNS = tested on: SF-539 CNS
SK-MEL-2 melanoma = tested on: SK-MEL-2 melanoma
SK-MEL-28 melanoma = tested on: SK-MEL-28 melanoma
SK-MEL-5 melanoma = tested on: SK-MEL-5 melanoma
SK-OV-3 ovarian = tested on: SK-OV-3 ovarian
SN12C renal = tested on: SN12C renal
SNB-75 CNS = tested on: SNB-75 CNS
SR leukemia = tested on: SR leukemia
SW-620 colon = tested on: SW-620 colon
TK-10 renal = tested on: TK-10 renal
UACC-257 melanoma = tested on: UACC-257 melanoma
UACC-62 melanoma = tested on: UACC-62 melanoma
UO-31 renal = tested on: UO-31 renal

**Q.** `C=CC(=O)N1CCN(CCCn2c(=O)c(-c3c(Cl)c(OC)cc(OC)c3Cl)cc3cnc(NC)nc32)CC1` was tested. Which GI50 (A498 renal) did it give?
**A.** Its GI50 is 0.462 µM.

**Q.** And the TGI (A498 renal)?
**A.** Its TGI is 4.69 µM.

**Q.** And the GI50 (A549 NSCLC)?
**A.** The GI50 was 3.23 µM.

**Q.** And the TGI (A549 NSCLC)?
**A.** The TGI was 14.4 µM.

**Q.** What about the GI50 (ACHN renal) of the same compound?
**A.** Its GI50 is 0.975 µM.

**Q.** What about the TGI (ACHN renal) of the same compound?
**A.** The TGI was 11.3 µM.

**Q.** And the GI50 (BT-549 breast)?
**A.** Its GI50 is 0.369 µM.

**Q.** What about the TGI (BT-549 breast) of the same compound?
**A.** Its TGI is 3.1 µM.

**Q.** And the GI50 (CAKI-1 renal)?
**A.** The GI50 was 0.478 µM.

**Q.** What about the TGI (CAKI-1 renal) of the same compound?
**A.** The TGI was 3.49 µM.

**Q.** And the GI50 (CCRF-CEM leukemia)?
**A.** Its GI50 is 1.51 µM.

**Q.** And the TGI (CCRF-CEM leukemia)?
**A.** The TGI was 3.29 µM.

**Q.** What about the GI50 (COLO 205 colon) of the same compound?
**A.** The GI50 was 10.9 µM.

**Q.** What about the TGI (COLO 205 colon) of the same compound?
**A.** Its TGI is 22.9 µM.

**Q.** What about the GI50 (EKVX NSCLC) of the same compound?
**A.** Its GI50 is 5.95 µM.

**Q.** And the TGI (EKVX NSCLC)?
**A.** Its TGI is 19.6 µM.

**Q.** And the GI50 (HCC-2998 colon)?
**A.** Its GI50 is 9.16 µM.

**Q.** What about the TGI (HCC-2998 colon) of the same compound?
**A.** Its TGI is 22 µM.

**Q.** And the GI50 (HCT-116 colon)?
**A.** Its GI50 is 3.55 µM.

**Q.** And the TGI (HCT-116 colon)?
**A.** The TGI was 14.7 µM.

**Q.** And the GI50 (HOP-92 NSCLC)?
**A.** Its GI50 is 1.61 µM.

**Q.** And the TGI (HOP-92 NSCLC)?
**A.** The TGI was 6.96 µM.

**Q.** What about the GI50 (HS 578T breast) of the same compound?
**A.** Its GI50 is 0.327 µM.

**Q.** What about the TGI (HS 578T breast) of the same compound?
**A.** Its TGI is 2.35 µM.

**Q.** What about the GI50 (HT29 colon) of the same compound?
**A.** Its GI50 is 4.61 µM.

**Q.** And the TGI (HT29 colon)?
**A.** The TGI was 16.8 µM.

**Q.** What about the GI50 (IGROV1 ovarian) of the same compound?
**A.** Its GI50 is 0.888 µM.

**Q.** And the TGI (IGROV1 ovarian)?
**A.** The TGI was 7.23 µM.

**Q.** What about the GI50 (K-562 leukemia) of the same compound?
**A.** Its GI50 is 5.67 µM.

**Q.** What about the TGI (K-562 leukemia) of the same compound?
**A.** Its TGI is 18.3 µM.

**Q.** What about the GI50 (KM12 colon) of the same compound?
**A.** The GI50 was 6.06 µM.

**Q.** What about the TGI (KM12 colon) of the same compound?
**A.** The TGI was 18.8 µM.

**Q.** What about the GI50 (LOX IMVI melanoma) of the same compound?
**A.** Its GI50 is 2.63 µM.

**Q.** And the TGI (LOX IMVI melanoma)?
**A.** The TGI was 15.6 µM.

**Q.** What about the GI50 (MALME-3M melanoma) of the same compound?
**A.** The GI50 was 1.92 µM.

**Q.** What about the TGI (MALME-3M melanoma) of the same compound?
**A.** The TGI was 9.84 µM.

**Q.** What about the GI50 (MDA-MB-231 breast) of the same compound?
**A.** Its GI50 is 3.94 µM.

**Q.** And the TGI (MDA-MB-231 breast)?
**A.** The TGI was 14.9 µM.

**Q.** And the GI50 (MDA-MB-435 melanoma)?
**A.** The GI50 was 4.33 µM.

**Q.** And the TGI (MDA-MB-435 melanoma)?
**A.** Its TGI is 14.7 µM.

**Q.** And the GI50 (MOLT-4 leukemia)?
**A.** Its GI50 is 0.689 µM.

**Q.** And the TGI (MOLT-4 leukemia)?
**A.** The TGI was 1.96 µM.

**Q.** And the TGI (NCI-H226 lung)?
**A.** Its TGI is 11.8 µM.

**Q.** And the GI50 (NCI-H23 lung)?
**A.** Its GI50 is 3.72 µM.

**Q.** And the TGI (NCI-H23 lung)?
**A.** The TGI was 15.3 µM.

**Q.** What about the GI50 (NCI-H322M lung) of the same compound?
**A.** The GI50 was 5.16 µM.

**Q.** And the TGI (NCI-H322M lung)?
**A.** Its TGI is greater than 39.6 µM.

**Q.** And the GI50 (NCI-H522 lung)?
**A.** The GI50 was 2.66 µM.

**Q.** What about the TGI (NCI-H522 lung) of the same compound?
**A.** The TGI was 11.8 µM.

**Q.** What about the GI50 (NCI/ADR-RES ovarian) of the same compound?
**A.** Its GI50 is 7.93 µM.

**Q.** And the TGI (NCI/ADR-RES ovarian)?
**A.** Its TGI is 21.3 µM.

**Q.** What about the GI50 (OVCAR-3 ovarian) of the same compound?
**A.** Its GI50 is 2.21 µM.

**Q.** What about the TGI (OVCAR-3 ovarian) of the same compound?
**A.** The TGI was 13.6 µM.

**Q.** And the GI50 (OVCAR-4 ovarian)?
**A.** Its GI50 is 3.14 µM.

**Q.** What about the TGI (OVCAR-4 ovarian) of the same compound?
**A.** Its TGI is 18 µM.

**Q.** And the GI50 (OVCAR-5 ovarian)?
**A.** Its GI50 is 18.1 µM.

**Q.** And the TGI (OVCAR-5 ovarian)?
**A.** Its TGI is 46.3 µM.

**Q.** And the GI50 (OVCAR-8 ovarian)?
**A.** The GI50 was 5.9 µM.

**Q.** And the TGI (OVCAR-8 ovarian)?
**A.** Its TGI is 19.2 µM.

**Q.** And the GI50 (PC-3 prostate)?
**A.** Its GI50 is 3.56 µM.

**Q.** What about the TGI (PC-3 prostate) of the same compound?
**A.** Its TGI is 12.4 µM.

**Q.** What about the GI50 (RPMI-8226 leukemia) of the same compound?
**A.** The GI50 was 0.759 µM.

**Q.** What about the TGI (RPMI-8226 leukemia) of the same compound?
**A.** Its TGI is 2.39 µM.

**Q.** What about the GI50 (SF-268 CNS) of the same compound?
**A.** Its GI50 is 1.22 µM.

**Q.** What about the TGI (SF-268 CNS) of the same compound?
**A.** The TGI was 7.03 µM.

**Q.** What about the GI50 (SF-295 CNS) of the same compound?
**A.** Its GI50 is 8.31 µM.

**Q.** What about the TGI (SF-295 CNS) of the same compound?
**A.** The TGI was 38.1 µM.

**Q.** What about the GI50 (SF-539 CNS) of the same compound?
**A.** The GI50 was 3.7 µM.

**Q.** What about the TGI (SF-539 CNS) of the same compound?
**A.** Its TGI is 16.4 µM.

**Q.** What about the GI50 (SK-MEL-2 melanoma) of the same compound?
**A.** Its GI50 is 1.7 µM.

**Q.** And the TGI (SK-MEL-2 melanoma)?
**A.** The TGI was 5.09 µM.

**Q.** What about the GI50 (SK-MEL-28 melanoma) of the same compound?
**A.** Its GI50 is 15.1 µM.

**Q.** And the TGI (SK-MEL-28 melanoma)?
**A.** Its TGI is 39.5 µM.

**Q.** What about the GI50 (SK-MEL-5 melanoma) of the same compound?
**A.** The GI50 was 2.35 µM.

**Q.** What about the TGI (SK-MEL-5 melanoma) of the same compound?
**A.** Its TGI is 13.1 µM.

**Q.** What about the GI50 (SK-OV-3 ovarian) of the same compound?
**A.** Its GI50 is 1.1 µM.

**Q.** And the TGI (SK-OV-3 ovarian)?
**A.** The TGI was 9.48 µM.

**Q.** What about the GI50 (SN12C renal) of the same compound?
**A.** The GI50 was 2.36 µM.

**Q.** What about the TGI (SN12C renal) of the same compound?
**A.** The TGI was 12.2 µM.

**Q.** What about the GI50 (SNB-75 CNS) of the same compound?
**A.** Its GI50 is 0.211 µM.

**Q.** And the TGI (SNB-75 CNS)?
**A.** The TGI was 4.88 µM.

**Q.** And the GI50 (SR leukemia)?
**A.** The GI50 was 1.29 µM.

**Q.** What about the TGI (SR leukemia) of the same compound?
**A.** The TGI was 3.04 µM.

**Q.** And the GI50 (SW-620 colon)?
**A.** Its GI50 is 3.22 µM.

**Q.** What about the TGI (SW-620 colon) of the same compound?
**A.** Its TGI is 9.31 µM.

**Q.** And the GI50 (TK-10 renal)?
**A.** Its GI50 is 5.98 µM.

**Q.** And the TGI (TK-10 renal)?
**A.** Its TGI is 19.5 µM.

**Q.** And the GI50 (UACC-257 melanoma)?
**A.** Its GI50 is 4.44 µM.

**Q.** And the TGI (UACC-257 melanoma)?
**A.** The TGI was 16 µM.

**Q.** And the GI50 (UACC-62 melanoma)?
**A.** Its GI50 is 1.9 µM.

**Q.** And the TGI (UACC-62 melanoma)?
**A.** Its TGI is 11.8 µM.

**Q.** And the GI50 (UO-31 renal)?
**A.** Its GI50 is 3.72 µM.

**Q.** And the TGI (UO-31 renal)?
**A.** The TGI was 15.9 µM.
